Data from patent publication US9370185B2, “Herbicidal composition” (ISHIHARA SANGYO KAISHA, LTD., priority 2011, dated 2016).

Assays:
Assay type in all cases: in vivo
[1] = system: black nightshade (Solanum nigrum L.); test: Test Example 1: foliar treatment of black nightshade, visual growth inhibition; details: foliar treatment at 2.3 to 2.5 leaf stage, 21st day after treatment, read-out: Growth Inhibition Rate of Black nightshade (%) Measured Value
Description: Upland field soil was put into a 1/1,000,000-ha pot, and seeds of black nightshade (Solanum nigrum L.) were sown. When the black nightshade reached the 2.3 to 2.5 leaf stage, prescribed amounts of a water dispersible granules containing flazasulfuron as an active ingredient (trade name: SHIBAGEN DF, manufactured by Ishihara Sangyo Kaisha, Ltd.) and a wettable powder containing pyroxasulfone as an active ingredient were diluted with water (corresponding to 1,000 L/ha) containing 0.05% by volume of an agricultural adjuvant (trade name: KUSARINOH, manufactured by NIHON NOHYAKU Co., Ltd.) and applied for foliar treatment by a small sprayer.
On the 21st day after the treatment, the state of growth of the black nightshade was visually observed and examined, followed by evaluation according to the following evaluation criteria. A growth inhibition rate (%) (measured value) and a growth inhibition rate (%) (calculated value) as calculated according to the foregoing Colby's method are shown in Table 1.
(§1) Growth inhibition rate (%)=weed control rate of from 0% (equivalent to the non-treated plot) to 100% (complete kill)

[2] = system: velvetleaf (Abutilon theophrasti Medic.); test: Test Example 3: soil treatment, velvetleaf, visual growth inhibition; details: 24 h, soil treatment one day after sowing, 21st day after treatment, read-out: Growth Inhibition Rate of Velvetleaf (%) Measured Value
Description: as §1
(§2) Upland field soil was put into a 1/1,000,000-ha pot, and seeds of velvetleaf (Abutilon theophrasti Medic.) were sown. After one day, prescribed amounts of SHIBAGEN DF (trade name) and a wettable powder containing pyroxasulfone as an active ingredient were diluted with water (corresponding to 1,000 L/ha) and applied for soil treatment by a small sprayer.
On the 21st day after the treatment, the state of growth of the velvetleaf was visually observed and examined.

[3] = system: wild oat (Avena fatua L.); test: Test Example 6: soil treatment, wild oat, visual growth inhibition; details: 24 h, soil treatment one day after sowing, 28th day after treatment, read-out: Growth Inhibition Rate of Wild oat (%) Measured Value
Description: as §1
as §2, with “1/300,000-ha” for “1/1,000,000-ha”, “wild oat (Avena fatua L.)” for “velvetleaf (Abutilon theophrasti Medic.)”
On the 28th day after the treatment, the state of growth of the wild oat was visually observed and examined.

[4] = system: crabgrass (Digitaria sanguinalis (L.) Scop.); test: Test Example 2: foliar treatment of crabgrass, visual growth inhibition; details: foliar treatment at 4.0 to 4.5 leaf stage, 21st day after treatment, read-out: Growth Inhibition Rate of Crabgrass (%) Measured Value
Description: as §1
Upland field soil was put into a 1/1,000,000-ha pot, and seeds of crabgrass (Digitaria sanguinalis (L.) Scop.) were sown. When the crabgrass reached the 4.0 to 4.5 leaf stage, prescribed amounts of SHIBAGEN DF (trade name) and a wettable powder containing pyroxasulfone as an active ingredient were diluted with water (corresponding to 1,000 L/ha) containing 0.05% by volume of KUSARINOH (trade name) and applied for foliar treatment by a small sprayer.
On the 21st day after the treatment, the state of growth of the crabgrass was visually observed and examined.

[5] = system: black nightshade (Solanum nigrum L.); test: Test Example 5: soil treatment, black nightshade, visual growth inhibition; details: 24 h, soil treatment one day after sowing, 14th day after treatment, read-out: Growth Inhibition Rate of Black nightshade (%) Measured Value
Description: as §1
as §2, with “1/300,000-ha” for “1/1,000,000-ha”, “black nightshade (Solanum nigrum L.)” for “velvetleaf (Abutilon theophrasti Medic.)”
On the 14th day after the treatment, the state of growth of the black nightshade was visually observed and examined.

[6] = system: velvetleaf (Abutilon theophrasti Medic.); test: Test Example 7: soil treatment, velvetleaf, visual growth inhibition; details: 24 h, soil treatment one day after sowing, 28th day after treatment, read-out: Growth Inhibition Rate of Velvetleaf (%) Measured Value
Description: as §1
as §2, with “1/300,000-ha” for “1/1,000,000-ha”, “an oil-based suspension” for “SHIBAGEN DF”, “name: ONEHOPE NYUZAI, manufactured by Ishihara Sangyo Kaisha, Ltd.) containing nicosulfuron as an active ingredient” for “name)”
On the 28th day after the treatment, the state of growth of the velvetleaf was visually observed and examined.

[7] = system: common lambsquarters (Chenopodium album L.); test: Test Example 4: soil treatment, common lambsquarters, visual growth inhibition; details: 24 h, soil treatment one day after sowing, 27th day after treatment, read-out: Growth Inhibition Rate of Common lambsquarters (%) Measured Value
Description: as §1
Upland field soil was put into a 1/1,000,000-ha pot, and seeds of common lambsquarters (Chenopodium album L.) were sown. After one day, prescribed amounts of a water-based suspension containing nicosulfuron as an active ingredient and a wettable powder containing pyroxasulfone as an active ingredient were diluted with water (corresponding to 300 L/ha) and applied for soil treatment by a small sprayer.
On the 27th day after the treatment, the state of growth of the common lambsquarters was visually observed and examined.

SMILES	inhibition at 12.5 g/ha ([1]; dose 12.5 g/ha) [%]	inhibition at 50 g/ha ([2]; dose 50 g/ha) [%]	inhibition at 100 g/ha ([3]; dose 100 g/ha) [%]	inhibition at 50 g/ha ([4]; dose 50 g/ha) [%]	inhibition at 25 g/ha ([5]; dose 25 g/ha) [%]	inhibition at 50 g/ha [5] [%]	inhibition at 100 g/ha ([5]; dose 100 g/ha) [%]	inhibition at 20 g/ha ([6]; dose 20 g/ha) [%]	inhibition at 100 g/ha [6] [%]	inhibition at 30 g/ha ([7]; dose 30 g/ha) [%]	inhibition at 25 g/ha ([1]; dose 25 g/ha) [%]	inhibition at 12.5 g/ha ([2]; dose 12.5 g/ha) [%]	inhibition at 50 g/ha ([6]; dose 50 g/ha) [%]	inhibition at 300 g/ha ([6]; dose 300 g/ha) [%]	inhibition at 125 g/ha ([7]; dose 125 g/ha) [%]	inhibition at 12.5 g/ha ([3]; dose 12.5 g/ha) [%]	inhibition at 25 g/ha ([4]; dose 25 g/ha) [%]	inhibition at 200 g/ha ([4]; dose 200 g/ha) [%]	inhibition at 150 g/ha ([5]; dose 150 g/ha) [%]	inhibition at 300 g/ha ([5]; dose 300 g/ha) [%]
COc1cc(OC)nc(NC(=O)NS(=O)(=O)c2ncccc2C(F)(F)F)n1 [flazasulfuron, 1-(4,6-dimethoxypyrimidin-2-yl)-3-(3-trilfuoromethyl-2-pyridylsulfony)urea]	33	94	85	70	50	60	80													
COc1cc(OC)nc(NC(=O)NS(=O)(=O)c2ncccc2C(=O)N(C)C)n1 [nicosulfuron, 2-(4,6-dimethoxypyrimidin-2-ylcarbamoylsulfamoyl)-N,N-dimethylnicotinamide]								0	10	35										
Cn1nc(C(F)(F)F)c(CS(=O)(=O)C2=NOC(C)(C)C2)c1OC(F)F [pyroxasulfone, 3-[5-(difluoromethoxy)-1-methyl-3-(trifluoromethyl)pyrazol-4-ylmethylsulfonyl]-4,5-dihydro-5,5-dimethyl-1,2-oxazole]						20			70		20	13	40	80	90	0	0	40	30	30
